One test deals with Phospholipase D2 (Homo sapiens, UniProt O14939). Put plainly: PLD2 inhibitor potency in cells, dose response (AID 602147).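 Note: cellular assay in HEK293 cells overexpressing GFP-tagged PLD2.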 Type of test: functional.
Another test deals with Phospholipase D1 (Homo sapiens, UniProt Q13393). Put plainly: PLD1 inhibitor potency in cells, dose response (AID 602151).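 Note: cellular PLD1 assay in Calu-1 cells stimulated with PMA.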 Type of test: functional.
A further test deals with Hexokinase-1 (Homo sapiens, UniProt P19367). Put plainly: SAR analysis of small molecule inhibitors of hexokinase domain containing I (HKDC1) in the hexokinase 1 selectivity assay. [Related pubchem assays (depositor defined):AID493160, AID493190]. Format: functional.
The target of the next test is T1, Hexokinase HKDC1 (Homo sapiens, UniProt Q2TB90).
T1 sequence (Q2TB90 whole entry): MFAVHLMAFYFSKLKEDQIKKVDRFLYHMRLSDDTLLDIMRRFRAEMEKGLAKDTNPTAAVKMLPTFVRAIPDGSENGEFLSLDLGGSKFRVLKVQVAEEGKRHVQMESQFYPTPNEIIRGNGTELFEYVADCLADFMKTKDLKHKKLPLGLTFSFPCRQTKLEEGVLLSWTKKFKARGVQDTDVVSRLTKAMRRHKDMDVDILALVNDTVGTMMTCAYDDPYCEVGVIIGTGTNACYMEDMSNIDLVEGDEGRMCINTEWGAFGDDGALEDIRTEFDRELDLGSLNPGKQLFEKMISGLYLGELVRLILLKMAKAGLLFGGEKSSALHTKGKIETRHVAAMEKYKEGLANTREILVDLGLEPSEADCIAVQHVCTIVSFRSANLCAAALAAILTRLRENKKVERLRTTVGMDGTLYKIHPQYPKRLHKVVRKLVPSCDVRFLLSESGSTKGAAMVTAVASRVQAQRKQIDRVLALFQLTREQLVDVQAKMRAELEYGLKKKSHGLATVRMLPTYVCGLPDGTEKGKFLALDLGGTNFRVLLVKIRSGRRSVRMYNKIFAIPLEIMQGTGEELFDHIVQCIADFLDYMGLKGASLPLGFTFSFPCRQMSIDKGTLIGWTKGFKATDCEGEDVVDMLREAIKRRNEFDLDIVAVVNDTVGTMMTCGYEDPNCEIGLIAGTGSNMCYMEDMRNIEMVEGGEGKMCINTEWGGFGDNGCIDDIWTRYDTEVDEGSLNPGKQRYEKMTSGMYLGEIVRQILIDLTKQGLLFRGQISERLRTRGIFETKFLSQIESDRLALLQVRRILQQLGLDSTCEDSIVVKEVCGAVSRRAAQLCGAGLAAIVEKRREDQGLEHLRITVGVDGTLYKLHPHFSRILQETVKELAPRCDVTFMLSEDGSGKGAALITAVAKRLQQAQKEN
Put plainly: SAR analysis of small molecule inhibitors of hexokinase domain containing I (HKDC1). [Related pubchem assays (depositor defined):AID493160, AID493190]. Type of test: functional.

In a further test the target is DNA topoisomerase (Yersinia pestis, UniProt A0A2S9PM60). Put plainly: Y. pestis Topo-I inhibitors, cleavage product readout, dose response, biochemical, cherry-pick (AID 588525).
The test system of test [1] is HEK293. Put plainly: SAR Analysis of small molecule inhibitors of both B-cell and T-cell specific antigen receptor-induced NF-kB activation in a HEK-293T cell line using a luminescence assay. [Related pubchem assays (depositor defined):AID435003, AID435022, AID465, AID489019, AID489029]. Type of test: functional, cell-based. Particulars: Homo sapiens.
The test system of test [2] is HEK293. Put plainly: cytotoxicity in HEK293T NF-kB-Luc cells, SAR follow-up, cytotoxicity control for NF-kB activator project, cell-based, resazurin fluorescence (AID 493251). Type of test: functional. The settings on record: Homo sapiens.
For another test, the system named is Jurkat. Put plainly: SAR Analysis of small molecule inhibitors of both B-cell and T-cell specific antigen receptor-induced NF-kB activation in a Jurkat cell line using a luminescence assay. [Related pubchem assays (depositor defined):AID435003, AID435022, AID465, AID489029]. The settings on record: Homo sapiens. Format: functional, cell-based.

Molecules are shown by their SMILES. Activity calls are given as the source filed them.

Broadly, the IC50 is the midpoint of a concentration-inhibition curve. As a reminder, the AC50 is the midpoint of the concentration-response curve, whichever way the signal moves.

Phospholipase D2, sequence (O14939 whole entry): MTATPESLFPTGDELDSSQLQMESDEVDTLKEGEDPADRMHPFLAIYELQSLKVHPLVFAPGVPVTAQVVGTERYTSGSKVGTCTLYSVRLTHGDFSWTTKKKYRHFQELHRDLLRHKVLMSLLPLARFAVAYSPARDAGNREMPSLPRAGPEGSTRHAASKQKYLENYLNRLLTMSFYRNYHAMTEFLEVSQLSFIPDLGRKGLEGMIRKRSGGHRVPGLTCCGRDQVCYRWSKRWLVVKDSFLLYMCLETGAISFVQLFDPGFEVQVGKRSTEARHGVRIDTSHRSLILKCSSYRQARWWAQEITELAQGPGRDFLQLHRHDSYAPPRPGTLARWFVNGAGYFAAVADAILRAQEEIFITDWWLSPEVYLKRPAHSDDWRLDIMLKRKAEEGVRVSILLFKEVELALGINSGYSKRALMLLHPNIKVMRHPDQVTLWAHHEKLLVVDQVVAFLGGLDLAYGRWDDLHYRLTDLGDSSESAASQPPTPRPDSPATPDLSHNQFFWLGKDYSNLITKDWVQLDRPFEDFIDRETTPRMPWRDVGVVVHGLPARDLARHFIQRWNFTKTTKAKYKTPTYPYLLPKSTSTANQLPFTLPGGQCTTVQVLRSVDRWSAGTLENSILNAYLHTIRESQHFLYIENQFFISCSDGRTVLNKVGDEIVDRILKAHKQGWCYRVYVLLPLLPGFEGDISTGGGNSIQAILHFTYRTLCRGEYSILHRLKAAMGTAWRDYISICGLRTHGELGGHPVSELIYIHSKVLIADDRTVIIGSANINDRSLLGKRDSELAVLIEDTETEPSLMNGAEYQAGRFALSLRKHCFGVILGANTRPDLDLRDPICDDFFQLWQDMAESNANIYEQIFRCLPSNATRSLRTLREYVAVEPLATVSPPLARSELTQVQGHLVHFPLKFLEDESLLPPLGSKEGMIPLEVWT
DNA topoisomerase, sequence (A0A2S9PM60 whole entry): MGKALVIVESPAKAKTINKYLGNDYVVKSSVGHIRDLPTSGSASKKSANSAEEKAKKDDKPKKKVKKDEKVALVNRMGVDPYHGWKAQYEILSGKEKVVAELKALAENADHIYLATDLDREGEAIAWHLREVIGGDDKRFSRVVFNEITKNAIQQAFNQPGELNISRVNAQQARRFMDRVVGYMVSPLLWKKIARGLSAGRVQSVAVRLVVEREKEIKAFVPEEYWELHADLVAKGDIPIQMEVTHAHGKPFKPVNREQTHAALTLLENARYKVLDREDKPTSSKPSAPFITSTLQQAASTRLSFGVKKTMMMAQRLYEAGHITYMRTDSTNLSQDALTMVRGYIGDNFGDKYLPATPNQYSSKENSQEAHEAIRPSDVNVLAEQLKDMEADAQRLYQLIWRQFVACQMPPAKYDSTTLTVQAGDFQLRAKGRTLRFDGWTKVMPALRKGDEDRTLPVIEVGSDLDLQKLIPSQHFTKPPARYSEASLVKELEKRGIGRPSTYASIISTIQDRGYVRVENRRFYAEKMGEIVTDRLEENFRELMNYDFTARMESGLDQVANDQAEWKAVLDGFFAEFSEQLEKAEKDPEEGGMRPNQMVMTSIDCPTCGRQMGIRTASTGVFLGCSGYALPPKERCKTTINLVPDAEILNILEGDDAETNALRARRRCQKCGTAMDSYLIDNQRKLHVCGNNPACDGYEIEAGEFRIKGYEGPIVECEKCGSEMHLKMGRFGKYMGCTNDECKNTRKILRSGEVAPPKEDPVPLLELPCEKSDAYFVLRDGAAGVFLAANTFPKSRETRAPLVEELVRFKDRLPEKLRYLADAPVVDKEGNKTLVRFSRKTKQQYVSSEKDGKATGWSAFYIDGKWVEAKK
Phospholipase D1, sequence (Q13393 whole entry, the tested form may be a part): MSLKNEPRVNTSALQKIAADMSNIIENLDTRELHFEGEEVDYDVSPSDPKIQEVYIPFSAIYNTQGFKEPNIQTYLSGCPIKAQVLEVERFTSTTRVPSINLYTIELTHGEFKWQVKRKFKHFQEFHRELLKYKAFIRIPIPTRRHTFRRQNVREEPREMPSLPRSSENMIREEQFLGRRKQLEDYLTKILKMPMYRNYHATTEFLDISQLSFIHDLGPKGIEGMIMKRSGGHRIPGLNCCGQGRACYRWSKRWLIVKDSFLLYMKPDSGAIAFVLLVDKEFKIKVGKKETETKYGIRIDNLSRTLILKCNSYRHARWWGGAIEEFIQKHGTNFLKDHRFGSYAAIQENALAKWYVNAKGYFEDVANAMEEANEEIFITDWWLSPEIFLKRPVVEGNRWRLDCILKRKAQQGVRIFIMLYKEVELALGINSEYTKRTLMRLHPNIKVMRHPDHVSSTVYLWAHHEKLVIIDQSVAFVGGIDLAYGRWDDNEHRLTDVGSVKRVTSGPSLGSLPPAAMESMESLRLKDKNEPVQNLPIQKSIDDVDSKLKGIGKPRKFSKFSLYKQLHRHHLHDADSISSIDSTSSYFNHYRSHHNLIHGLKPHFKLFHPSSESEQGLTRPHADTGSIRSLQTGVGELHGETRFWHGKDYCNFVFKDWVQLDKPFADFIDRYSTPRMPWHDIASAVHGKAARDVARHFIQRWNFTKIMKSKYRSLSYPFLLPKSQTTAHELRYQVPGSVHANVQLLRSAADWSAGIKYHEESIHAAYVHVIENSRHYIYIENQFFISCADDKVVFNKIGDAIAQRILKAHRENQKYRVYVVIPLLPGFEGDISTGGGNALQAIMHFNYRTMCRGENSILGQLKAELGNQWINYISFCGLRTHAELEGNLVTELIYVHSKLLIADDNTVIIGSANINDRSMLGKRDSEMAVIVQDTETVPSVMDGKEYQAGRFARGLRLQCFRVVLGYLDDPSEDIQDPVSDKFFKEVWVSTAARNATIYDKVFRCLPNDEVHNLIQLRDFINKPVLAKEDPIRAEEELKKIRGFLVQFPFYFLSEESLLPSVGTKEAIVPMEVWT
Hexokinase-1, sequence (P19367 whole entry, the tested form may be a part): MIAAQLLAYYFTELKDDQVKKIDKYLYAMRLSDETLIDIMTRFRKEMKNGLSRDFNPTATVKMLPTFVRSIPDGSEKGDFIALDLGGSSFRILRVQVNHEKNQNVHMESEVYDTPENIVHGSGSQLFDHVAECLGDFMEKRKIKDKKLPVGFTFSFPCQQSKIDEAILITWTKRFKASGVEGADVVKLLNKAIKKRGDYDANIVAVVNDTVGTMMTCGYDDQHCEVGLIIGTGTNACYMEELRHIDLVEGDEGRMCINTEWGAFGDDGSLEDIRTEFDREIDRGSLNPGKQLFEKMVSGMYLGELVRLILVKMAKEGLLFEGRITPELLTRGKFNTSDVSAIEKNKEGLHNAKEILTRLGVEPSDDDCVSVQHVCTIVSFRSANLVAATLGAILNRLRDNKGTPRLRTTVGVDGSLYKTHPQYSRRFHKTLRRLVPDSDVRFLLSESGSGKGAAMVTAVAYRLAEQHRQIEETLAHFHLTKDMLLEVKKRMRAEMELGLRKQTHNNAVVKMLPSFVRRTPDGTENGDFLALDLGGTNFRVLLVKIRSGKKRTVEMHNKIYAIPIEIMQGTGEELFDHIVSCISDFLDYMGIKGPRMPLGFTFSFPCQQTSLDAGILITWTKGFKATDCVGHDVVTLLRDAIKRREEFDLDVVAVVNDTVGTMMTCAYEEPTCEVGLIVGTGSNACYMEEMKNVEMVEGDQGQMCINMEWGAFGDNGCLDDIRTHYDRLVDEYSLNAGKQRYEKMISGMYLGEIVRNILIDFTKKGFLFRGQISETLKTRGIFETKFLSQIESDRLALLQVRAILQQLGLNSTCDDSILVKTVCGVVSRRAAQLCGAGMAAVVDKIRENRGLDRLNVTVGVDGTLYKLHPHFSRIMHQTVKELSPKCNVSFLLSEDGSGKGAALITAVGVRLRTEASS

In the case of `O=C(NCCN1CCC(n2c(=O)[nH]c3ccccc32)CC1)c1cccc(F)n1`, the IC50 on Phospholipase D2 was 1.3 µM (active); at Phospholipase D1 it was 0.19 µM (active).
As to `Cc1ccc(CSc2nnc(NC(=O)c3ccc4ncsc4c3)s2)cc1`, the IC50 on Hexokinase-1 and at Hexokinase HKDC1 was > 80 µM (inactive) in each case.
Turning to `COc1cc2ccccc2cc1C(=O)OCC(=O)N(CC(C)C)c1c(N)n(Cc2ccccc2)c(=O)[nH]c1=O`, the AC50 at DNA topoisomerase is 20.8 µM (active).
Regarding `Nc1cccc2cccnc12` [8-AMINOQUINOLINE], the IC50 in the test on HEK293 [1] was > 79 µM (inactive); with HEK293 [2], > 80 µM (inactive); in the test with Jurkat, > 79 µM (inactive).

For the origin of these results see ChEMBL document CHEMBL1201862, “PubChem BioAssay data set” (2004).
